{"source": "patent US9434687B2", "about": "“Detection of synthetic cannabinoids” (priority 2011, dated 2016)", "assay_type_in_all_cases": "binding, sheep", "key": {"[1]": {"tested_on": "antiserum raised to Immunogen II (Hapten B-BTG)", "experiment": "Competitive ELISA microtiter plate assay, antiserum raised to Immunogen II, conjugate Hapten A-HRP (Example 19)", "experimental": "(§1) Aqueous solutions of the immunogens prepared in examples 5 and 13 were formulated with Freund's Complete Adjuvant (FCA) to form emulsions consisting of 2 mg/ml Immunogen I and 2 mg/ml of Immunogen II in 50% (v/v) FCA. Three sheep were immunised with each emulsion (1° immunisations), 0.25 ml being intramuscularly injected at four sites in the rump of each animal. Subsequent immunisations (boosts 2-8) contained 1 mg/ml Immunogen I and 1 mg/ml Immunogen II. All boosts were emulsified in 50% (v/v) Freund's Incomplete Adjuvant (FIA) and administered to the appropriate sheep in the same manner as the 1° immunisations, at monthly intervals. Blood sampling took place 7-14 days after each boost. Each sample was processed to produce antiserum, which was further purified by caprylic acid and ammonium sulphate precipitation to yield an immunoglobulin (Ig) fraction. The Ig fraction was evaluated by competitive ELISA microtiter plate assay, as described in example 19 below.\n(§2) (a) The wells of an enhanced binding 96 well polystyrene microtiter plate were coated with the Ig fraction of the antiserum raised to Immunogen I (Hapten A-BTG—example 5) and diluted in 10 mM Tris, pH8.5 (125 μl/well). The appropriate antibody coating concentration was determined using standard ELISA checkerboard techniques. The plate was incubated for 2 hours at 37° C., washed 4 times over a 10-minute period with Tris buffered saline containing Tween 20 (TBST) and tapped dry. Standard solutions of JWH synthetic cannabinoids, metabolites and selected molecules were prepared in TBST and 50 μl of each was added to the appropriate wells. 75 μl of conjugate (Hapten A-HRP) diluted in Tris buffer containing EDTA, D-mannitol, sucrose, thimerosal and BSA, was added to each of the wells. The appropriate dilution of conjugate was also determined using standard ELISA checkerboard techniques. The plate was incubated at 25° C. for 1 hour. The excess unbound conjugate was removed by washing 6 times over a 10-minute period with TBST and tapped dry. 125 μl of tetramethylbenzedine (TMB) substrate solution was added to each well of the plate that was then incubated for 15-20 minutes in the dark at room temperature. The reaction was terminated by addition of 125 μl of 0.2M sulphuric acid to each well. The absorbance was then measured at 450 nm using a microtiter plate reader.\n(§3) Employing each series of standards, calibration curves were generated and these were used to determine the specificity of the immunoassay for the JWH synthetic cannabinoids, metabolites and selected molecules. The results of this study are presented in Tables 1 to 3, cross-reactivity being calculated according to the following formula: % CR=IC50,JWH-018/IC50,CR×100\n(§4) Where % CR is the percentage cross-reactivity, IC50, JWH-018 is the concentration of JWH-018 that causes 50% displacement of signal and IC50, CR is the concentration of JWH synthetic cannabinoid/metabolite/selected molecule that causes 50% displacement of signal.\nTable 1: Data generated from a competitive microtiter plate assay for JWH synthetic cannabinoids and metabolites, employing antiserum raised to Immunogen II (Hapten B-BTG) and conjugate (Hapten A-HRP) as detection reagent.\n(§5) (d) The resulting competitive ELISA for synthetic cannabinoids and metabolites was also employed to test for the 5-fluoropentyl derivative of JWH-018, (1-(5-fluoropentyl)indol-3yl (1-naphthyl) methanone (Table 4)."}, "[2]": {"tested_on": "antiserum raised to Immunogen I (Hapten A-BTG)", "experiment": "Competitive ELISA microtiter plate assay, antiserum raised to Immunogen I, conjugate Hapten A-HRP (Example 19)", "experimental": "as §1, §2, §3, §4\n(b) In a similar manner to that described in Example 19(a), the wells of a 96 well microtiter plate were coated with the Ig fraction of the antiserum raised to Immunogen I (Hapten A-BTG). Conjugate (Hapten A-HRP) was employed as a detection reagent.\nTable 2: Data generated from a competitive microtiter plate assay for JWH synthetic cannabinoids and metabolites, employing antiserum raised to Immunogen I (Hapten A-BTG) and conjugate (Hapten A-HRP) as detection reagent.\nas §5"}, "[3]": {"tested_on": "antibodies raised to Immunogens I & II", "experiment": "Competitive ELISA, selected molecules as potential cross-reactants (Table 3)", "experimental": "as §2, §3, §4\nThe antibody produced from Immunogen I is able to bind to JWH molecules known to be incorporated in herbal therapeutics such as JWH-018, proposed metabolites such as M2 (Wintermeyer et al 2010), and potential metabolites such as M5. The detection and quantification of other JWH SSCs is also provided for, the antibodies of the invention bind a range of molecules comprising the 3-(1-naphthoyl)-1H-indole structure (e.g. JWH-071, JWH-398, M1 etc.). […] The concept of using the antibodies of the invention to detect and determine future stealth synthetic cannabinoids is highlighted in Table 4; the 5-fluoropentyl derivative known to bind the CB 1 receptor, but which as of yet has not been detected in herbal therapeutics or similar substances, binds to antibodies raised from Immunogens I and II."}, "[4]": {"conditions": "Table 1, CR based on 100% for JWH-018"}, "[5]": {"conditions": "Table 1, detecting agent derived from Hapten-A, 40 ng/ml highest concentration tested"}, "[6]": {"conditions": "Table 2, CR based on 100% for JWH-018"}, "[7]": {"conditions": "Table 2, detecting agent derived from Hapten-A, 40 ng/ml highest concentration tested"}, "[8]": {"conditions": "Table 4, Immunogen II, relative to JWH-018"}, "[9]": {"conditions": "Table 4, Immunogen I, relative to JWH-018"}}, "data": [{"smiles": "CCCCCn1cc(C(=O)c2cccc3ccccc23)c2c(O)cccc21", "note": "[4-OH JWH-018, JWH-018 4-hydroxyindole metabolite]", "values": [{"measurement": "% Cross-reactivity", "setting": "[1]; [4]", "value": 23.03, "unit": "%"}, {"measurement": "IC50", "setting": "[1]; [5]", "value": 9.16, "unit": "ng/mL"}, {"measurement": "% Cross-reactivity", "setting": "[2]; [6]", "value": 10.62, "unit": "%"}, {"measurement": "IC50", "setting": "[2]; [7]", "value": 25.51, "unit": "ng/mL"}]}, {"smiles": "CCCCCn1cc(C(=O)c2cccc3ccccc23)c2cc(O)ccc21", "note": "[5-OH JWH-018, JWH-018 5-hydroxyindole metabolite]", "values": [{"measurement": "% Cross-reactivity", "setting": "[1]; [4]", "value": 130.25, "unit": "%"}, {"measurement": "IC50", "setting": "[1]; [5]", "value": 1.62, "unit": "ng/mL"}, {"measurement": "binding to the antibody produced from Immunogen I (in words)", "setting": "[2]", "value": "able to bind"}, {"measurement": "% Cross-reactivity", "setting": "[2]; [6]", "value": 694.87, "unit": "%"}, {"measurement": "IC50", "setting": "[2]; [7]", "value": 0.39, "unit": "ng/mL"}]}, {"smiles": "CCCCCn1cc(C(=O)c2cccc3ccccc23)c2ccc(O)cc21", "note": "[6-OH JWH-018, JWH-018 6-hydroxyindole metabolite]", "values": [{"measurement": "% Cross-reactivity", "setting": "[1]; [4]", "value": 215.31, "unit": "%"}, {"measurement": "IC50", "setting": "[1]; [5]", "value": 0.98, "unit": "ng/mL"}, {"measurement": "binding to the antibody produced from Immunogen I (in words)", "setting": "[2]", "value": "able to bind"}, {"measurement": "% Cross-reactivity", "setting": "[2]; [6]", "value": 132.84, "unit": "%"}, {"measurement": "IC50", "setting": "[2]; [7]", "value": 2.04, "unit": "ng/mL"}]}, {"smiles": "O=C(c1cccc2ccccc12)c1cn(CCCCCF)c2ccccc12", "note": "[AM-2201, 1-(5-Fluoropentyl)indol-3-yl (1-naphthyl) methanone]", "values": [{"measurement": "IC50", "setting": "[1]; Table 4, Immunogen II", "value": 0.22, "unit": "ng/mL"}, {"measurement": "% Cross-reactivity", "setting": "[1]; [8]", "value": 908.00, "unit": "%"}, {"measurement": "IC50", "setting": "[2]; Table 4, Immunogen I", "value": 0.02, "unit": "ng/mL"}, {"measurement": "% Cross-reactivity", "setting": "[2]; [9]", "value": 11500.00, "unit": "%"}, {"measurement": "binding / cross-reaction with antibodies raised from Immunogens I and II (in words)", "setting": "[3]", "value": "binds"}]}, {"smiles": "O=C(c1cccc2ccccc12)c1cn(CCCCCO)c2ccccc12", "note": "[JWH-018 N-(5-hydroxypentyl) metabolite]", "values": [{"measurement": "% Cross-reactivity", "setting": "[1]; [4]", "value": 183.48, "unit": "%"}, {"measurement": "IC50", "setting": "[1]; [5]", "value": 1.15, "unit": "ng/mL"}, {"measurement": "% Cross-reactivity", "setting": "[2]; [6]", "value": 1505.56, "unit": "%"}, {"measurement": "IC50", "setting": "[2]; [7]", "value": 0.18, "unit": "ng/mL"}]}, {"smiles": "O=C(O)CCCCn1cc(C(=O)c2cccc3ccccc23)c2ccccc21", "note": "[JWH-018 N-pentanoic acid metabolite]", "values": [{"measurement": "% Cross-reactivity", "setting": "[1]; [4]", "value": 38.50, "unit": "%"}, {"measurement": "IC50", "setting": "[1]; [5]", "value": 5.48, "unit": "ng/mL"}, {"measurement": "% Cross-reactivity", "setting": "[2]; [6]", "value": 645.24, "unit": "%"}, {"measurement": "IC50", "setting": "[2]; [7]", "value": 0.42, "unit": "ng/mL"}, {"measurement": "binding / cross-reaction with antibodies raised from Immunogens I and II (in words)", "setting": "[3]", "value": "bind"}]}, {"smiles": "CCCCCn1cc(C(=O)c2cccc3ccccc23)c2ccccc21", "note": "[JWH-018]", "values": [{"measurement": "% Cross-reactivity", "setting": "[1]; [4]", "value": 100.00, "unit": "%"}, {"measurement": "IC50", "setting": "[1]; [5]", "value": 2.11, "unit": "ng/mL"}, {"measurement": "IC50", "setting": "[1]; Table 4, Immunogen II", "value": 1.97, "unit": "ng/mL"}, {"measurement": "% Cross-reactivity", "setting": "[1]; [8]", "value": 100.00, "unit": "%"}, {"measurement": "binding to the antibody produced from Immunogen I (in words)", "setting": "[2]", "value": "able to bind"}, {"measurement": "% Cross-reactivity", "setting": "[2]; [6]", "value": 100.00, "unit": "%"}, {"measurement": "IC50", "setting": "[2]; [7]", "value": 2.71, "unit": "ng/mL"}, {"measurement": "IC50", "setting": "[2]; Table 4, Immunogen I", "value": 2.30, "unit": "ng/mL"}, {"measurement": "% Cross-reactivity", "setting": "[2]; [9]", "value": 100.00, "unit": "%"}]}, {"smiles": "CCCCn1cc(C(=O)c2cccc3ccccc23)c2ccccc21", "note": "[JWH-073]", "values": [{"measurement": "% Cross-reactivity", "setting": "[1]; [4]", "value": 135.26, "unit": "%"}, {"measurement": "IC50", "setting": "[1]; [5]", "value": 1.56, "unit": "ng/mL"}, {"measurement": "% Cross-reactivity", "setting": "[2]; [6]", "value": 291.40, "unit": "%"}, {"measurement": "IC50", "setting": "[2]; [7]", "value": 0.93, "unit": "ng/mL"}]}, {"smiles": "O=C(c1cccc2ccccc12)c1cn(CCN2CCOCC2)c2ccccc12", "note": "[JWH-200]", "values": [{"measurement": "% Cross-reactivity", "setting": "[1]; [4]", "value": 127.11, "unit": "%"}, {"measurement": "IC50", "setting": "[1]; [5]", "value": 1.66, "unit": "ng/mL"}, {"measurement": "% Cross-reactivity", "setting": "[2]; [6]", "value": 874.19, "unit": "%"}, {"measurement": "IC50", "setting": "[2]; [7]", "value": 0.31, "unit": "ng/mL"}]}, {"smiles": "CCCCCn1cc(C(=O)c2ccc(Cl)c3ccccc23)c2ccccc21", "note": "[JWH-398]", "values": [{"measurement": "% Cross-reactivity", "setting": "[1]; [4]", "value": 12.02, "unit": "%"}, {"measurement": "IC50", "setting": "[1]; [5]", "value": 17.55, "unit": "ng/mL"}, {"measurement": "% Cross-reactivity", "setting": "[2]; [6]", "value": "<<6.78%"}, {"measurement": "IC50", "setting": "[2]; [7]", "value": ">>40 ng/ml"}, {"measurement": "binding / cross-reaction with antibodies raised from Immunogens I and II (in words)", "setting": "[3]", "value": "bind"}]}, {"smiles": "O=C(c1cccc2ccccc12)c1c[nH]c2ccccc12", "note": "[N-desalkyl JWH-018, 3-(1-naphthoyl)-1H-Indole]", "values": [{"measurement": "% Cross-reactivity", "setting": "[1]; [4]", "value": "<<5.28%"}, {"measurement": "IC50", "setting": "[1]; [5]", "value": ">>40 ng/ml"}, {"measurement": "% Cross-reactivity", "setting": "[2]; [6]", "value": 70.57, "unit": "%"}, {"measurement": "IC50", "setting": "[2]; [7]", "value": 3.84, "unit": "ng/mL"}]}]}
